Biological target: T1, Xyn141E (Acetivibrio thermocellus, UniProt A3DHG8)
T1 construct: gene Cthe_2195
Assay: HPAEC-PAD of hydrolysis products
Assay type: biochemical
Details: 200 µg/mL substrate, 100 µg/mL enzyme, 10 mM MOPS pH 6.5, 50 mM NaCl, 10 mM CaCl2, 60 °C, 16 h

T1 sequence (A3DHG8 entry or part of it): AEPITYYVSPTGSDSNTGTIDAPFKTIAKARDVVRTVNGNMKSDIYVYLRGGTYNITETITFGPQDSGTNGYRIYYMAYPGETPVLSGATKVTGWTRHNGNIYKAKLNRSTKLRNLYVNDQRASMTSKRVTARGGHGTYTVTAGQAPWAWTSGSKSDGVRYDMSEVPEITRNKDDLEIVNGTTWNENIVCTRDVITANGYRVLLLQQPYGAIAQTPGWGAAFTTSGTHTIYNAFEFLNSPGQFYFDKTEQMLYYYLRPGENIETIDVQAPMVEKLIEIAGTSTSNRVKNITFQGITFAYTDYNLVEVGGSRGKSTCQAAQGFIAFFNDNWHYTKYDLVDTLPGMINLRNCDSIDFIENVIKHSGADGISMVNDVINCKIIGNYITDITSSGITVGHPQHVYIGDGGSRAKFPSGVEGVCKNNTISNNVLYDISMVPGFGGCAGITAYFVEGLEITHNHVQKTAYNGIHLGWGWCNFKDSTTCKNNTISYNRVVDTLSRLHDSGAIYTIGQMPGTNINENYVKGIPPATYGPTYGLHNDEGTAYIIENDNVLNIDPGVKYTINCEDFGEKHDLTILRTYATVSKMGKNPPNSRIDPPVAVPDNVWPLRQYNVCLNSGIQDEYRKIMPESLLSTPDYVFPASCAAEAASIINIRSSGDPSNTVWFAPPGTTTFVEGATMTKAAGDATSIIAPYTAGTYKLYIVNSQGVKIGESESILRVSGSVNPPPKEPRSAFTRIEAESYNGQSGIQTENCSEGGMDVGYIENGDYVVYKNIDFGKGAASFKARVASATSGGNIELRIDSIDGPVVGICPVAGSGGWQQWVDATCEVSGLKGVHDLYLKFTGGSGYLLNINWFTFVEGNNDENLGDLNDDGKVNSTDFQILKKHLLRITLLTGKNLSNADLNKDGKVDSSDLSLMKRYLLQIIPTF

Compound	HPAEC-PAD of hydrolysis products
OC1OC[C@@H](O[C@@H]2OC[C@@H](O[C@@H]3OC[C@@H](O[C@@H]4OC[C@@H](O)[C@H](O)[C@H]4O)[C@H](O)[C@H]3O)[C@H](O)[C@H]2O)[C@H](O)[C@H]1O (some centres unmarked) [X4, xylotetraose]	Xyn141E was able to hydrolyse X5 and X4 to X2 and X3 or X2, respectively.
OC1OC[C@@H](O[C@@H]2OC[C@@H](O[C@@H]3OC[C@@H](O[C@@H]4OC[C@@H](O[C@@H]5OC[C@@H](O)[C@H](O)[C@H]5O)[C@H](O)[C@H]4O)[C@H](O)[C@H]3O)[C@H](O)[C@H]2O)[C@H](O)[C@H]1O (some centres unmarked) [X5, xylopentaose]	Xyn141E was able to hydrolyse X5 and X4 to X2 and X3 or X2, respectively.

From publication PMC5593877, “Identification of endoxylanase XynE from Clostridium thermocellum as the first xylanase of glycoside hydrolase family GH141” (Scientific Reports, 2017)
